# Test results: patent US7825092B2, “Dendroaspis natriuretic peptide for treatment of cancer” (University of South Florida, priority 2006, dated 2010)
# Assays:
# [1] = tested on: human glioblastoma cells; assay: DNA synthesis by bromodeoxyuridine (BrdU) incorporation; format: cell-based; conditions: 1 μM, 24 hours
# Protocol: To investigate whether these peptide hormones were inhibiting DNA synthesis, bromodeoxyuridine (BrdU) incorporation into the human glioblastoma cells was utilized as previously described from our laboratory. BrdU was from BD Bioscience, San Jose, Calif. After 24 hours in culture with 1 μM of LANP, vessel dilator, kaliuretic peptide, ANP, and DNP, respectively, or with no peptide hormone (i.e., control), BrdU in a final concentration of 10 μM in the cell culture medium was added for 45 minutes, which is the time in which the cells are in the logarithmic phase of cell proliferation.
# (§1) The data obtained in this investigation are illustrated as mean±SEM. Maximum changes in cell death (evaluated six times with ten areas of microscope slide evaluated each time) and DNA synthesis within groups were determined by a paired one-tailed Student's t test evaluated with statistical module of Excel software. To be considered statistically significant, we required a probability value to be <0.05 (95% confidence limits).
# [2] = tested on: human glioblastoma cells (ATCC number CRL-11543); assay: number of human glioblastoma cells counted after incubation with peptide hormones; format: cell-based; conditions: for decrease in number of human glioblastoma cells compared to control: at 96 hours (three days after 24 hours exposure); for number of glioblastoma cancer cells remaining (per field): 24 hours, mean±SEM, control 130±3 cells
# Protocol: A cell line (ATCC number CRL-11543) of human glioblastoma cells were purchased from American Type Culture Collection (ATCC, Manassas, Va.). This glioblastoma cell line was deposited by the Ludwig Institute for Cancer Research, University of California at San Diego, La Jolla, Calif. This glioblastoma cell line produces angiogensis inhibiting factor.
# Propagation of these human glioblastoma cells was in Dulbecco's modified Eagle's medium with 4 mM L-glutamine adjusted to contain 1.5 g/L sodium bicarconate and 4.5 g/L glucose supplemented with 1 μg/ml tetracycline, […], and 10% fetal bovine serum (Atlanta Biologicals, Lawrenceville, Ga.) at a temperature of 37° C. in a […] environment as recommended by the ATCC. Cells were dispensed in new flasks with subculturing two to three times per week.
# After the glioblastoma cells were subcultured for 24 hours they were then seeded to coverslips in 24-well plates (Nunclon™, Roskilde, Denmark) with 1 mL of the above media. There were 65,000 cells seeded to each coverslip. After 24 hours, the well plates were washed twice with phosphate-buffered saline to remove the fetal bovine serum. Removal of serum was carried out to completely remove all variables (EGF, etc.) present in serum in order that interpretation of any data obtained would be straightforward. After 24 hours of serum deprivation, media volume was reduced to 250 μL per well with, or without, the respective peptide hormones in dose-response curves with concentrations up to and including 100 μM (1% of this volume). Human glioblastoma cells were then incubated for various periods of time (24, 48, 72, and 96 hours). The number of glioblastoma carcinoma cells were then counted with a cell counter (Thomas Scientific, Swedesboro, N.J.) evaluating ten fields of the microscope slide at ×40 along the X-axis with an Olympus BH-2 microscope (Atlanta, Ga.). This evaluation was repeated on six separate occasions with the number of human glioblastoma cells reflecting 60 observations for each group, i.e., 60 observations for controls and 60 observations for each of the five groups with respective peptide hormones. The peptide hormones used in this investigation were from Phoenix Pharmaceuticals, Inc., Belmont, Calif. In the Results section, the number of cancer cells reported is the number of cells in each individual field. Ten fields were examined on each microscope slide. The results of the ten fields were pooled and the average of the ten fields is illustrated in the Results section.
# as §1
# [3] = tested on: human prostate cancer cells; conditions: cited from earlier work
# [4] = human or animal subjects; cited from earlier work
# [5] = tested on: human pancreatic adenocarcinomas; conditions: in one week, athymic mice; cited from earlier work
# [6] = tested on: human colon cancer cells; conditions: within 24 hours; cited from earlier work
# [7] = tested on: human pancreatic adenocarcinoma cells; conditions: 1 μM; cited from earlier work
# [8] = tested on: small-cell lung cancer cells; conditions: 1 μM; cited from earlier work
# [9] = 1 μM, at 48 hours (24 hours exposure only)
# [10] = 1 μM, at 72 hours (24 hours exposure only)
# [11] = 10 μM, at 48 hours (24 hours exposure only)
# [12] = 10 μM, at 72 hours (24 hours exposure only)
# [13] = 100 μM, at 48 hours (24 hours exposure only)
# [14] = 100 μM, at 72 hours (24 hours exposure only)
Molecule,decrease in DNA synthesis [1] [%],"decrease in number of human glioblastoma cells ([2]; 1 μM, at 24 hours) [%]","decrease in number of human glioblastoma cells [2, 9] [%]","decrease in number of human glioblastoma cells [2, 10] [%]",decrease in number of human glioblastoma cells compared to control ([2]; 1 μM) [%],"decrease in number of human glioblastoma cells ([2]; 10 μM, at 24 hours) [%]","decrease in number of human glioblastoma cells [2, 11] [%]","decrease in number of human glioblastoma cells [2, 12] [%]",decrease in number of human glioblastoma cells compared to control ([2]; 10 μM) [%],number of glioblastoma cancer cells remaining (per field) ([2]; 100 μM) [cells],"decrease in number of human glioblastoma cells ([2]; 100 μM, at 24 hours) [%]","decrease in number of human glioblastoma cells [2, 13] [%]","decrease in number of human glioblastoma cells [2, 14] [%]",decrease in number of human glioblastoma cells compared to control ([2]; 100 μM) [%],side effect hypotension [4],further results
"brain natriuretic peptide [BNP, reference compound]",23,,,,,,,,,,,,,,,
vessel dilator,87,53,53,53,43,60,60,60,55,33±2,75,76,76,68,never,"lower concentration causing the same decrease as the other peptide hormones ([2]; within 24 hours, FIG. 2): 10 fold; decrease in number of human prostate cancer cells, up to ([3]; within 24 hours): up to 97%; decrease in tumor volume [5]: 49%; decrease in number of human colon cancer cells, up to [6]: up to 97%"
Dendroaspis natriuretic peptide [DNP],23,,1,1,1,,7,6,5,,17,19,19,8,,"concentration where first began to have an effect on glioblastoma cells [2]: 100 µM; difference in concentration with significant anticancer effects, DNP versus human cardiac hormones ([2]; DNP higher, human cardiac hormones lower): 100 fold; killing / elimination of human glioblastoma cells, up to ([2]; within 24 hours, maximum effect, concentration not given): up to 19%"
"CC[C@H](C)[C@@H]1NC(=O)[C@H](CCCNC(=N)N)NC(=O)[C@H](CC(=O)O)NC(=O)[C@H](CCSC)NC(=O)[C@H](CCCNC(=N)N)NC(=O)CNC(=O)CNC(=O)[C@H](Cc2ccccc2)NC(=O)[C@@H](NC(=O)[C@H](CO)NC(=O)[C@H](CO)NC(=O)[C@H](CCCNC(=N)N)NC(=O)[C@H](CCCNC(=N)N)NC(=O)[C@H](CC(C)C)NC(=O)[C@@H](N)CO)CSSC[C@@H](C(=O)N[C@@H](CC(N)=O)C(=O)N[C@@H](CO)C(=O)N[C@@H](Cc2ccccc2)C(=O)N[C@@H](CCCNC(=N)N)C(=O)N[C@@H](Cc2ccc(O)cc2)C(=O)O)NC(=O)CNC(=O)[C@H](CC(C)C)NC(=O)CNC(=O)[C@H](CO)NC(=O)[C@H](CCC(N)=O)NC(=O)[C@H](C)NC(=O)CNC1=O [ANP, atrial natriuretic peptide]",79,,,,24,,,,43,,,,,60,observed,
"long acting natriuretic peptide (NPMYNAVSNADLMDFKNLLDHLEEKMPLED; Long-acting natriuretic peptide; UniProt P01160 26-55, looked up, fragment) [LANP, cardiac hormone, first 30 amino acids of the 126 a.a. atrial natriuretic peptide prohormone]",65,31,31,31,24,49,50,50,39,43±2,65,65,66,61,never,
kaliuretic peptide,77,33,32,32,25,51,51,52,40,43±2,68,68,68,64,never,"decrease in human pancreatic adenocarcinoma cells [7]: 37%; decrease in number of human glioblastoma cells ([2]; 1 μM, at 24 hours, listed as Kaliuretic peptide): 32%; decrease in prostate adenocarcinoma cells ([3]; 1 μM): 30%; decrease in small-cell lung cancer cells [8]: 30%"
